From US20040029823A1, “Antisense oligonucleotide compositions and methods for the modulation of JNK proteins” (priority 1997, published 2004)
Strand notation (5' to 3'): a small letter for the sugar, then the base; units joined by * are phosphorothioate-linked, units joined directly phosphodiester-linked; [ ] holds rarer units or linkages, { } end groups; capitals alone tell only the bases. Where a SMILES comes first, the peptide text is derived from it. The star is where a group is joined. e = 2'-O-(2-methoxyethyl) (MOE); [5mC] = 5-methylcytosine; Cbz = O=C(OCc1ccccc1)*; d = 2'-deoxy (DNA); CH2F = FC*

Assays:
Type in all cases: cell-based, human
JNK1 mRNA = test: Northern assay of JNK1 mRNA expression in A549 cells; conditions: for RNA % Control / RNA % Inhibition: 300 nM for 20 hours then 200 nM for 4 hours
Experimental: (§1) In order to evaluate the activity of potential JNK-modulating oligonucleotides, human lung carcinoma cell line A549 (American Type Culture Collection, Rockville, Md. No. ATCC CCL-185) cells or other cell lines as indicated in the Examples, were grown and treated with oligonucleotides or control solutions as detailed below. After harvesting, cellular extracts were prepared and examined for specific JNK mRNA levels or JNK protein levels (i.e., Northern or Western assays, respectively). In all cases, “% expression” refers to the amount of JNK-specific signal in an oligonucleotide-treated cell relative to an untreated cell (or a cell treated with a control solution that lacks oligonucleotide), and “% inhibition” is calculated as
100%−% Expression =% Inhibition.
Northern Assays: The mRNA expression of each JNK protein was determined by using a nucleic acid probe specifically hybridizable thereto. Nucleic acid probes specific for JNK1, JNK2 and JNK3 are described in Examples 3, 4 and 5, respectively. The probes were radiolabelled by means well known in the art (see, e.g., Short Protocols in Molecular Biology, 2nd Ed., Ausubel et al., Eds., John Wiley & Sons, New York, 1992, pages 3-11 to 2-3-44 and 4-17 to 4-18; Ruth, Chapter 6 In: Methods in Molecular Biology, Vol. 26: Protocols for Oligonucleotide Conjugates, Agrawal, ed., Humana Press Inc., Totowa, N.J., 1994, pages 167-185; and Chapter 10 In: Molecular Cloning: A Laboratory Manual, 2nd Ed., Sambrook et al., Eds., pages 10.1-10.70). The blots were stripped and reprobed with a ^32P-labeled glyceraldehyde 3-phosphate dehydrogenase (G3PDH) probe (Clontech Laboratories, Inc., Palo Alto, Calif.) in order to confirm equal loading of RNA and to allow the levels of JNK transcripts to be normalized with regard to the G3PDH signals.
A549 cells were grown in T-75 flasks until 80-90% confluent. At this time, the cells were washed twice with 10 mL of media (DMEM), followed by the addition of 5 mL of DMEM containing 20 μg/mL of LIPOFECTIN™ (i.e., 1:1 (w/w) DOTMA/DOPE, Life Technologies, Gaithersburg, Md.; DOTMA=N-[1-(2,3-dioleyoxy)propyl]-N,N,N-trimethylammonium chloride; DOPE=dioleoyl phosphatidylethanolamine). The oligonucleotides were added from a 10 μM stock solution to a final concentration of 400 nM, and the two solutions were mixed by swirling the flasks. As a control, cells were treated with LIPOFECTIN™ without oligonucleotide under the same conditions and for the same times as the oligonucleotide-treated samples. After 4 hours at 37° C., the medium was replaced with fresh DMEM containing 10% serum. The cells were allowed to recover for 18 hours. Total cellular RNA was then extracted in guanidinium, subject to gel electrophoresis and transferred to a filter according to techniques known in the art (see, e.g., Chapter 7 In: Molecular Cloning: A Laboratory Manual, 2nd Ed., Sambrook et al., Eds., pages 7.1-7.87, and Short Protocols in Molecular Biology, 2nd Ed., Ausubel et al., Eds., John Wiley & Sons, New York, 1992, pages 2-24 to 2-30 and 4-14 to 4-29). Filters were typically hybridized overnight to a probe specific for the particular JNK gene of interest in hybridization buffer (25 mM KPO4, pH 7.4; 5×SSC; 5× Denhardt's solution, 100 μg/ml Salmon sperm DNA and 50% formamide) (Alahari et al., Nucl. Acids Res., 1993, 21, 4079). This was followed by two washes with 1×SSC, 0.1% SDS and two washes with 0.25×SSC, 0.1% SDS. Hybridizing bands were visualized by exposure to X-OMAT AR film and quantitated using a PHOSPHORIMAGER™ essentially according to the manufacturer's instructions (Molecular Dynamics, Sunnyvale, Calif.)
B. JNK1-specific probes: In initial screenings of a set of oligonucleotides derived from the JNK1 sequence (Table 2) for biological activity, a cDNA clone of JNK1 (Derijard et al., Cell, 1994, 76, 1025) was radiolabeled and used as a JNK1-specific probe in Northern blots. […]

JNK1 protein = test: Western assay of JNK1 protein levels in A549 cells; conditions: 300 nM for 20 hours then 200 nM for 4 hours
Experimental: as §1
Western Assays: A549 cells were grown and treated with oligonucleotides as described above. Cells were lysed, and protein extracts were electrophoresed (SDS-PAGE) and transferred to nitrocellulose filters by means known in the art (see, e.g., Chapter 18 In: Molecular Cloning: A Laboratory Manual, 2nd Ed., Sambrook et al., Eds., pages 18.34, 18.47-18.54 and 18.60-18.75)). The amount of each JNK protein was determined by using a primary antibody that specifically recognizes the appropriate JNK protein. The primary antibodies specific for each JNK protein are described in the appropriate Examples. The primary antibodies were detected by means well known in the art (see, e.g., Short Protocols in Molecular Biology, 2nd Ed., Ausubel et al., Eds., John Wiley & Sons, New York, 1992, pages 10-33 to 10-35; and Chapter 18 In: Molecular Cloning: A Laboratory Manual, 2nd Ed., Sambrook et al., Eds., pages 18.1-18.75 and 18.86-18.88) and quantitated using a PHOSPHORIMAGER™ essentially according to the manufacturer's instructions (Molecular Dynamics, Sunnyvale, Calif.).
F. Western Assays: In order to assess the effect of oligonucleotides targeted to JNK1 mRNAs on JNK1 protein levels, Western assays were performed essentially as described above in Example 2, with the following exception(s) and/or modification(s). A primary antibody that specifically binds to JNK1 (catalog No. sc-474-G) was purchased from Santa Cruz Biotechnology, Inc. (Santa Cruz, Calif.; other JNK1-specific antibodies are available from StressGen Biotechnologies, Inc., Victoria, BC, Canada; and Research Diagnostics, Inc., Flanders, N.J.). In this experiment, cells were grown and treated with oligonucleotide at 300 nM for the initial 20 hours and then at 200 nM for 4 hours. At t=48 h, aliquots were removed for Northern and Western analyses, and fresh media was added to the cells. Aliquots for analysis were also taken at t=72 h. The samples from t=48 h and t=72 h were analyzed using the Northern and Western assays described above.

HUVEC = test: Apoptosis in HUVEC (percent hypodiploid cells, flow cytometry); conditions: HUVEC treated with JNK2 oligonucleotide plus the inhibitor
[1] = JNK1 mRNA time course, t=0 h after 4 hour treatment
[2] = JNK1 mRNA time course, time 272 h [sic] (t=72 h in text)
[3] = JNK1 mRNA, chemically modified oligonucleotides, dose 100 nM
[4] = JNK1 mRNA, chemically modified oligonucleotides, dose 400 nM

| Compound | Normalized % Control (JNK1 mRNA; [3]) [%] | Normalized % Control (JNK1 mRNA; [4]) [%] | RNA % Control (JNK1 mRNA; JNK1 mRNA, t = 48 h) [%] | RNA % Control (JNK1 mRNA; JNK1 mRNA, t = 72 h) [%] | Protein % Control (JNK1 protein; t = 48 h) [%] | Protein % Control (JNK1 protein; t = 72 h) [%] | RNA % Inhibition (JNK1 mRNA; JNK1 mRNA, t = 72 h) | Protein % Inhibition (JNK1 protein; t = 48 h) | Protein % Inhibition (JNK1 protein; t = 72 h) [%] | RNA % Inhibition (JNK1 mRNA; JNK1 mRNA, t = 48 h) [%] | also measured |
| --- | --- | --- | --- | --- | --- | --- | --- | --- | --- | --- | --- |
| 12539 (antisense CTCTCTGTAGGCCCGCTTGG; DNA, all phosphorothioate, methylation of C not given here) [compound 12539] | 56.4 | 26.7 | 6.7 | 11.7 | 44.3 | 29.2 | – | – | – | – | Normalized % Control (JNK1 mRNA; JNK1 mRNA dose response, 50 nM): 70.3%; Normalized % Control (JNK1 mRNA; JNK1 mRNA dose response, 100 nM): 51.6%; Normalized % Control (JNK1 mRNA; JNK1 mRNA dose response, 200 nM): 22.4%; Normalized % Control (JNK1 mRNA; JNK1 mRNA dose response, 400 nM): 11.1%; % INHIBITION (JNK1 mRNA; [1]): 85.9%; Normalized % Control (JNK1 mRNA; [1]): 14.1%; % INHIBITION (JNK1 mRNA; JNK1 mRNA time course, t=4 h): 94.1%; Normalized % Control (JNK1 mRNA; JNK1 mRNA time course, t=4 h): 5.9%; % INHIBITION (JNK1 mRNA; JNK1 mRNA time course, t=12 h): 88.4%; Normalized % Control (JNK1 mRNA; JNK1 mRNA time course, t=12 h): 11.6%; % INHIBITION (JNK1 mRNA; JNK1 mRNA time course, t=48 h): 79.0%; Normalized % Control (JNK1 mRNA; JNK1 mRNA time course, t=48 h): 21.0%; % INHIBITION (JNK1 mRNA; [2]): 58.5%; Normalized % Control (JNK1 mRNA; [2]): 41.5%; % EXPRESSION (JNK1 mRNA; JNK1 mRNA, A549 cells, 400 nM oligonucleotide, relative to LIPOFECTIN-only control): 9% |
| 15345 (antisense e[5mC]*eT*e[5mC]*eT*e[5mC]*eT*eG*eT*eA*eG*eG*e[5mC]*e[5mC]*e[5mC]*eG*e[5mC]*eT*eT*eG*eG) [compound 15345] | 95.4 | 89.1 | 70.3 | 187.4 | 105.0 | 87.8 | (0.0) % | (0.0) % | 12.2 | – | – |
| 15347 (antisense CTCTCTGTAGGCCCGCTTGG; sugars from the 5' end e5 d9 e6, [5mC] at 1, 3, 5, 16, linkages o4 s10 o5 (s phosphorothioate, o phosphodiester), methylation of C not given here) [compound 15347] | 27.1 | 11.7 | 7.9 | 8.2 | 38.8 | 28.4 | 81.8% | – | – | 92.1 | inhibition of JNK1 mRNA expression (JNK1 mRNA; chemically modified derivatives of ISIS 12539, 400 nM (Table 5)): at least 88% |
| 15348 (antisense CTCTCTGTAGGCCCGCTTGG; sugars from the 5' end e11 d9, [5mC] at 1, 3, 5, all phosphorothioate, methylation of C not given here) [compound 15348] | 30.4 | 32.9 | 24.3 | 28.0 | 58.3 | 41.7 | 72.0% | 41.7% | 58.3 | 75.7 | – |
| 15349 (antisense CTCTCTGTAGGCCCGCTTGG; sugars from the 5' end d9 e11, [5mC] at 12, 13, 14, 16, all phosphorothioate, methylation of C not given here) [compound 15349] | 42.5 | 35.5 | 63.1 | 52.0 | 69.5 | 56.5 | 48.0% | 30.5% | 43.5 | 36.9 | – |
| 15350 (antisense CTCTCTGTAGGCCCGCTTGG; sugars from the 5' end d9 e11, [5mC] at 12, 13, 14, 16, linkages s9 o10 (s phosphorothioate, o phosphodiester), methylation of C not given here) [compound 15350] | 71.1 | 41.3 | 49.2 | 54.4 | 71.7 | 58.4 | 45.6% | 28.3% | 41.6 | 50.0 | – |
| 15351 (antisense CTCTCTGTAGGCCCGCTTGG; sugars from the 5' end e11 d9, [5mC] at 1, 3, 5, linkages o10 s9 (s phosphorothioate, o phosphodiester), methylation of C not given here) [compound 15351] | 45.1 | 39.8 | 26.9 | 46.1 | 52.4 | 37.0 | 53.9% | – | – | 73.1 | – |
| C[C@@H]1C[C@@H]([C@H](O)CC2CC(=O)NC(=O)C2)C(=O)[C@@H](C)C1 [cyclohexamide, reference compound] | – | – | – | – | – | – | – | – | – | – | effect on JNK2 oligonucleotide-induced cell death (apoptosis) (HUVEC): no effect |
| COC(=O)C[C@H](NC(=O)[C@H](C)NC(=O)[C@@H](NC(=O)OCc1ccccc1)C(C)C)C(=O)CF [z-FAD.fmk, z-VAD.fmk, reference compound] (Cbz-Val-Ala-Asp(OMe)-CH2F) | – | – | – | – | – | – | – | – | – | – | effect on JNK2 oligonucleotide-induced cell death (apoptosis) (HUVEC): decreased |
